Compound	melting point [°C]
Cc1cc(Oc2ccc(C(F)(F)F)cn2)cc(C)c1-c1cccc(N)c1 [Compound No. 1-57, 4-(3′-aminophenyl)3,5-dimethylphenyl 5-trifluoromethyl-2-pyridyl ether]	200.3
CNC(=O)c1cccc(-c2c(Cl)ccc(C(F)(F)F)c2Cl)c1 [1-120, N-methyl-3-(2′,6′-dichloro-3′-trifluoromethylphenyl)benzamide]	126.1
CNC(=O)c1cccc(-c2c(C)cc(Cl)cc2C)c1 [Compound No. 1-23, N-methyl-3-(4′-chloro-2′,6′-dimethylphenyl)benzamide]	137.1
CNC(=O)c1cccc(-c2c(Cl)ccc(N)c2Cl)c1 [1-108, N-methyl-3-(2′,6′-dichloro-3′-aminophenyl)benzamide]	64.1
CNC(=O)c1cccc(-c2c(Cl)ccc(Cl)c2Cl)c1 [1-72, N-methyl-3-(2′,3′,6′-trichlorophenyl)benzamide]	135.3
Nc1cccc(-c2c(Cl)cccc2Cl)c1 [1-268, 3-(2′,6′-dichlorophenyl)aniline]	102
CNC(=O)c1cc(-c2c(C)cc(C)cc2C)ccc1Cl [Compound No. 2-12, N-methyl-6-chloro-3-(2′,4′,6′-trimethylphenyl)benzamide]	130
CNC(=O)c1cc(-c2c(Cl)cccc2Cl)ccc1F [2-22, N-methyl-3-(2′,6′-dichlorophenyl)-6-fluorobenzamide]	142.5
CNC(=O)c1cccc(-c2c(Cl)ccc(Br)c2Cl)c1 [1-82, N-methyl-3-(2′,6′-dichloro-3′-bromophenyl)benzamide]	158
CNC(=O)c1cccc(-c2c(C)cc(C)cc2C)c1 [1-22, N-methyl-3-(2′,4′,6′-trimethylphenyl)benzamide]	142.9
CCNC(=O)c1cccc(-c2c(Cl)ccc(C(F)(F)F)c2Cl)c1 [1-127, N-ethyl-3-(2′,6′-dichloro-3′-trifluoromethylphenyl)benzamide]	137
CNC(=O)c1cccc(-c2c(Cl)cccc2Cl)c1 [1-30, N-methyl-3-(2′,6′-dichlorophenyl)benzamide]	174.8
CNC(=O)c1cccc(-c2c(C)cc(OC)cc2C)c1 [1-65, N-methyl-3-(2′,6′-dimethyl-4′-methoxyphenyl)benzamide]	139.6

Source: patent publication US20070135497A1, “Biphenyl derivative or its salt, and pesticide containing it as an active ingredient” (ISHIHARA SANGYO KAISHA LTD., priority 2003, published 2007)
